Reference: ChEMBL document CHEMBL4177611, “Discovery of aminocyclohexene analogues as selective and orally bioavailable hNav1.7 inhibitors for analgesia” (Bioorg Med Chem Lett, 2017)

Experiments:
Cytochrome P450 1A2 = biological target: T1, Cytochrome P450 1A2 (Homo sapiens, UniProt P05177)
T1 sequence (P05177 whole entry): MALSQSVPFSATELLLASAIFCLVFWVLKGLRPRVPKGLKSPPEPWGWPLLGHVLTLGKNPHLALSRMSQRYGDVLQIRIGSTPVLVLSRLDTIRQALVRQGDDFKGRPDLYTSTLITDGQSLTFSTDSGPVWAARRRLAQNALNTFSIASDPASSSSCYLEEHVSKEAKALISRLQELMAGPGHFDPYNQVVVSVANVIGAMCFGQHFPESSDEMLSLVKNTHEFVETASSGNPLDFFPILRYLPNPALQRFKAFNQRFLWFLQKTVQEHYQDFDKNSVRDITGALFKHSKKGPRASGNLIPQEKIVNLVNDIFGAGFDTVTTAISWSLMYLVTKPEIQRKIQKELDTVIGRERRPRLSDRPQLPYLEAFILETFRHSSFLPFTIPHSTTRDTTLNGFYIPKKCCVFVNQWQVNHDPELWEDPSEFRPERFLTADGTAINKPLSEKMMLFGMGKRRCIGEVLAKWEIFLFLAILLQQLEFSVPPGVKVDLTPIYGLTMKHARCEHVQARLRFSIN

[1] = Fraction unbound in rat plasma at 2 uM after 4 hrs by LC-MS/MS analysis; format: ADME, cell-free
[2] = Unbound plasma concentration in Sprague-Dawley rat spinal nerve ligation model at 30 mg/kg administered as single dose via oral gavage measured after 2 hrs by LC-MS/MS analysis; format: ADME, organism-based; details: in vivo
[3] = Drug metabolism in human liver microsomes assessed as dealkylation by measuring M1 metabolite formation at 10 uM measured up to 60 mins in presence of NADPH by LC-MS analysis relative to total metabolite peak area; format: ADME, microsome; details: 1 h
[4] = Intrinsic clearance in rat liver microsomes at 1 uM after 60 mins in presence of NADPH by LC-MS/MS analysis; format: ADME, microsome; details: read-out: CLH
[5] = biological target: Voltage-gated inwardly rectifying potassium channel KCNH2 (Homo sapiens, UniProt Q12809)
[6] = Drug metabolism in po dosed rat plasma assessed as deethylation by measuring 4-(((1R,6R)-6-amino-2-(4-fluorophenyl)cyclohex-2-enyl)methoxy)-5-chloro-2-fluoro-N-(thiazol-4-yl)benzenesulfonamide metabolite formation; format: ADME, organism-based; details: in vivo
[7] = Dissociation constant, pKa of the compound; format: physicochemical
[8] = Initial plasma concentration in Sprague-Dawley rat at 3 mg/kg administered as single iv bolus by LC-MS/MS analysis; format: ADME, organism-based
[9] = Drug metabolism in Sprague-Dawley rat dorsal root ganglion assessed as 4-(((1R,6R)-6-amino-2-(4-fluorophenyl)cyclohex-2-enyl)methoxy)-5-chloro-2-fluoro-N-(thiazol-4-yl)benzenesulfonamide formation at 100 mg/kg, ig measured after 1.5 hrs by LC-MS/MS analysis; format: ADME, organism-based; details: in vivo, po
[10] = Half life in Sprague-Dawley rat at 10 mg/kg administered as single dose via oral gavage by LC-MS/MS analysis; format: ADME, organism-based; details: in vivo
Cytochrome P450 2C19 = Cytochrome P450 2C19 (Homo sapiens, UniProt P33261)
[11] = Intrinsic clearance in human liver microsomes at 1 uM after 60 mins in presence of NADPH by LC-MS/MS analysis; format: ADME, microsome; details: read-out: CLH
[12] = Drug metabolism in human liver microsomes assessed as oxygenation by measuring M3 metabolite formation at 10 uM measured up to 60 mins in presence of NADPH by LC-MS analysis relative to total metabolite peak area; format: ADME, microsome; details: 1 h
[13] = Metabolic stability in dog liver microsomes assessed as parent compound remaining at 10 uM measured up to 60 mins in presence of NADPH by LC-MS analysis; format: ADME, Canis lupus familiaris, microsome; details: read-out: Stability
[14] = Metabolic stability in human liver microsomes assessed as parent compound remaining at 10 uM measured up to 60 mins in presence of NADPH by LC-MS analysis; format: ADME, microsome; details: read-out: Stability
[15] = Plasma concentration in Sprague-Dawley rat spinal nerve ligation model at 30 mg/kg administered as single dose via oral gavage measured after 4 hrs by LC-MS/MS analysis; format: ADME, organism-based
[16] = Cmax in Sprague-Dawley rat at 10 mg/kg administered as single dose via oral gavage by LC-MS/MS analysis; format: ADME, organism-based; design: dose 10 mg/kg, route oral; details: in vivo
[17] = Volume of distribution at steady state in Sprague-Dawley rat administered as single iv bolus by LC-MS/MS analysis; format: ADME, organism-based; details: in vivo, read-out: Vdss
[18] = Plasma concentration in Sprague-Dawley rat spinal nerve ligation model at 30 mg/kg administered as single dose via oral gavage measured after 2 hrs by LC-MS/MS analysis; format: ADME, organism-based
[19] = Unbound plasma concentration in Sprague-Dawley rat spinal nerve ligation model at 100 mg/kg administered as single dose via oral gavage measured after 4 hrs by LC-MS/MS analysis; format: ADME, organism-based; details: in vivo
Cytochrome P450 3A4 = Cytochrome P450 3A4 (Homo sapiens, UniProt P08684)
[20] = Tmax in Sprague-Dawley rat at 10 mg/kg administered as single dose via oral gavage by LC-MS/MS analysis; format: ADME, organism-based; details: in vivo
Cytochrome P450 2D6 = Cytochrome P450 2D6 (Homo sapiens, UniProt P10635)
[21] = AUC (0 to last) in Sprague-Dawley rat at 3 mg/kg administered as single iv bolus by LC-MS/MS analysis; format: ADME, organism-based; design: dose 3 mg/kg, route intravenous, time 0 - last; details: in vivo
[22] = biological target: Sodium channel protein type 5 subunit alpha (Homo sapiens, UniProt Q14524); assay: Inhibition of human Nav1.5 expressed in HEK293 cells at -120 mV holding potential incubated over 5 mins measured at 15 secs interval by Qpatch clamp assay; format: cell-based
Cytochrome P450 2C9 = Cytochrome P450 2C9 (Homo sapiens, UniProt P11712)
physchem [23] = details: buffer, pH 7.4
[24] = Plasma concentration in Sprague-Dawley rat spinal nerve ligation model at 100 mg/kg administered as single dose via oral gavage measured after 1 hr by LC-MS/MS analysis; format: ADME, organism-based
[25] = AUC in Sprague-Dawley rat at 10 mg/kg administered as single dose via oral gavage by LC-MS/MS analysis; format: ADME, organism-based; details: in vivo
Rattus norvegicus = assay: Unbound AUC (0 to last) in Sprague-Dawley rat at 10 mg/kg administered as single dose via oral gavage by LC-MS/MS analysis; format: ADME, organism-based; details: in vivo
[26] = Metabolic stability in rat liver microsomes assessed as parent compound remaining at 10 uM measured up to 60 mins in presence of NADPH by LC-MS analysis; format: ADME, microsome; details: read-out: Stability
physchem [27] = details: buffer, pH 7.4; remark: listed apart in the source
[28] = Clearance in Sprague-Dawley rat administered as single iv bolus by LC-MS/MS analysis; format: ADME, organism-based; details: in vivo
[29] = Unbound plasma concentration in Sprague-Dawley rat spinal nerve ligation model at 100 mg/kg administered as single dose via oral gavage measured after 2 hrs by LC-MS/MS analysis; format: ADME, organism-based; details: in vivo

Cytochrome P450 2C19, sequence (P33261 whole entry): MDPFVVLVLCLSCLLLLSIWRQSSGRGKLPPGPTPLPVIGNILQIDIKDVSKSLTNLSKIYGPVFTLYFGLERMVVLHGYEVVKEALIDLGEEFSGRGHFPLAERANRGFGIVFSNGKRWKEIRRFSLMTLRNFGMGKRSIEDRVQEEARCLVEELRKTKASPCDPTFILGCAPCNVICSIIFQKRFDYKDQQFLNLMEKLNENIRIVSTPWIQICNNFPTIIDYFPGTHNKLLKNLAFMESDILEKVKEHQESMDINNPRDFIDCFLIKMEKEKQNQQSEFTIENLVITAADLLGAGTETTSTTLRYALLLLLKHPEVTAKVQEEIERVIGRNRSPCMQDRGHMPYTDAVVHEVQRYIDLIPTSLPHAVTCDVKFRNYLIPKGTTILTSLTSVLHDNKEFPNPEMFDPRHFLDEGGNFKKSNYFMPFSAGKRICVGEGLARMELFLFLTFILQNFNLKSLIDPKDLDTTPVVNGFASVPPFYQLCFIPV
Cytochrome P450 3A4, sequence (P08684 whole entry): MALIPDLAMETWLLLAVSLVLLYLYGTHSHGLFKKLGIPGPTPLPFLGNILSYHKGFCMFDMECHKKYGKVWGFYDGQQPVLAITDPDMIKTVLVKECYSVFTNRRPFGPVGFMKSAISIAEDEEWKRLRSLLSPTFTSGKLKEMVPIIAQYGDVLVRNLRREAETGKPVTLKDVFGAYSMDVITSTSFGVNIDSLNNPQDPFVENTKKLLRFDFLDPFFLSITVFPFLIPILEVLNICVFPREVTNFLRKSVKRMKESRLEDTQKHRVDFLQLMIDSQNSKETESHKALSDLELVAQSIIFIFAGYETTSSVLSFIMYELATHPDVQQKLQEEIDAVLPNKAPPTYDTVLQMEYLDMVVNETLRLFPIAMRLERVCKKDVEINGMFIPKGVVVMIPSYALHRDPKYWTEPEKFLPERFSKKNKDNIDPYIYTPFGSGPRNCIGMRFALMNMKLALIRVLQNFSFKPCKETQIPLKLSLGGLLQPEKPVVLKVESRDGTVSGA
Cytochrome P450 2C9, sequence (P11712 whole entry): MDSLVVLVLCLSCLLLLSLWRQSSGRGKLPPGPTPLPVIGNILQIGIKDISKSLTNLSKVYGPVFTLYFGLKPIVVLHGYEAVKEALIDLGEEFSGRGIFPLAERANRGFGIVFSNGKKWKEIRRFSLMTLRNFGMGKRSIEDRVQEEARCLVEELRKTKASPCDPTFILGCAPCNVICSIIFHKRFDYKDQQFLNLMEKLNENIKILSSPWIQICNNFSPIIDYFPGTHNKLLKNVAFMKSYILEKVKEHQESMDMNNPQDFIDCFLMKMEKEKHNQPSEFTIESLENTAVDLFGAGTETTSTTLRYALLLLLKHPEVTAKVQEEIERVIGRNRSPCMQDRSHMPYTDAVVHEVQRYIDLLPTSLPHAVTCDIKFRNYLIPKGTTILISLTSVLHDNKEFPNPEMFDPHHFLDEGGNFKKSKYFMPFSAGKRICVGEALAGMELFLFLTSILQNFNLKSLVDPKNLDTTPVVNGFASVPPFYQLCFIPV
Sodium channel protein type 5 subunit alpha, sequence (Q14524 whole entry): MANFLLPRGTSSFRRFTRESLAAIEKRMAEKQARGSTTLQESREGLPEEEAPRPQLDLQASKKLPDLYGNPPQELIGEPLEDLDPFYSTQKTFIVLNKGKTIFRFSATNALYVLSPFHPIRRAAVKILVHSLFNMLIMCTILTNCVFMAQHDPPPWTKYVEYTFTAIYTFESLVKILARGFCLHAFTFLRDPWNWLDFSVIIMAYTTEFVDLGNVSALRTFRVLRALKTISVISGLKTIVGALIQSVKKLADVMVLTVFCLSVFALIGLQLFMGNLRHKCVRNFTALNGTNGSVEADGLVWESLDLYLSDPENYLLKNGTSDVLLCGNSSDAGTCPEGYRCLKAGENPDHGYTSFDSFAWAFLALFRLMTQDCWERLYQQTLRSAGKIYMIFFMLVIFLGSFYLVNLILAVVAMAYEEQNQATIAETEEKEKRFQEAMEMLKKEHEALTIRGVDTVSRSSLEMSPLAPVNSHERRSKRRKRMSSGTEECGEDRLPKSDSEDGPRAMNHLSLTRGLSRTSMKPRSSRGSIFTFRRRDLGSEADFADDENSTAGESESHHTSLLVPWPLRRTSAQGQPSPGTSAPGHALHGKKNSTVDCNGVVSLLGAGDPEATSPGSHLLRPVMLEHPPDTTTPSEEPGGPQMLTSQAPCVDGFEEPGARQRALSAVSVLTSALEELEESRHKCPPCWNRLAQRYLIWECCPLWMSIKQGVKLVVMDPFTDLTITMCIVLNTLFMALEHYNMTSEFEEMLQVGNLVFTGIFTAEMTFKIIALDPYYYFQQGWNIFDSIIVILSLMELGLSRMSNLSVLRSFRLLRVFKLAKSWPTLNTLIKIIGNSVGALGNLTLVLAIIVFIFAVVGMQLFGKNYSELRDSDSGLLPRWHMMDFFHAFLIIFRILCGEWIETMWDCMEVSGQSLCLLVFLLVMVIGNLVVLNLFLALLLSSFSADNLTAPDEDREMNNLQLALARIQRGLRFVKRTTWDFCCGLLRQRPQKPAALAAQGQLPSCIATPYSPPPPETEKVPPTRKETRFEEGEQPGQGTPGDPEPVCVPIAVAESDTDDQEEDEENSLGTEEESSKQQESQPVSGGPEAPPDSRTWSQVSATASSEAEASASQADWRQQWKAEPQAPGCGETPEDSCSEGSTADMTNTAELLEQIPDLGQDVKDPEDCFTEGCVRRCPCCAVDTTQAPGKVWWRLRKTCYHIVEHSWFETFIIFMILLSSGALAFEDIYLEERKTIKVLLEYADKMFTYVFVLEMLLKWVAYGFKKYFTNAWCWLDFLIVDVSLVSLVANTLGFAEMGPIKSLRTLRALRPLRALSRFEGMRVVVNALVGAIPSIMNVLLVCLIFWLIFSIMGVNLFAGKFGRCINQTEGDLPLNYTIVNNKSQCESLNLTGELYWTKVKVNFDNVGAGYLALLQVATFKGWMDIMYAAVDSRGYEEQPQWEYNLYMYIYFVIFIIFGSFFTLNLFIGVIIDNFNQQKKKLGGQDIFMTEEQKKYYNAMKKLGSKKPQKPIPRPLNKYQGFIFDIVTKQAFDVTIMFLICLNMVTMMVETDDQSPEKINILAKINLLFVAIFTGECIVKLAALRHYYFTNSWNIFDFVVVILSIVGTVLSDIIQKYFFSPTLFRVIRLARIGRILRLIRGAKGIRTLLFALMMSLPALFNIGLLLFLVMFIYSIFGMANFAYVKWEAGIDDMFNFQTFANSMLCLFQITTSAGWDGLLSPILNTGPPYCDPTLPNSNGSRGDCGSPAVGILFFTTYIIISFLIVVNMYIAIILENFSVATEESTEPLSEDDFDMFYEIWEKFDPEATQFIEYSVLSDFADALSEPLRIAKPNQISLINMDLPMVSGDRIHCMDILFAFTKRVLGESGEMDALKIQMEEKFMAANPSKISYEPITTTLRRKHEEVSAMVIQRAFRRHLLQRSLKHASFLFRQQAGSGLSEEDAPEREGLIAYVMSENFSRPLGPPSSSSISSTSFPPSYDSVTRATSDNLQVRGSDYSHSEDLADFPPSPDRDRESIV
Cytochrome P450 2D6, sequence (P10635 whole entry): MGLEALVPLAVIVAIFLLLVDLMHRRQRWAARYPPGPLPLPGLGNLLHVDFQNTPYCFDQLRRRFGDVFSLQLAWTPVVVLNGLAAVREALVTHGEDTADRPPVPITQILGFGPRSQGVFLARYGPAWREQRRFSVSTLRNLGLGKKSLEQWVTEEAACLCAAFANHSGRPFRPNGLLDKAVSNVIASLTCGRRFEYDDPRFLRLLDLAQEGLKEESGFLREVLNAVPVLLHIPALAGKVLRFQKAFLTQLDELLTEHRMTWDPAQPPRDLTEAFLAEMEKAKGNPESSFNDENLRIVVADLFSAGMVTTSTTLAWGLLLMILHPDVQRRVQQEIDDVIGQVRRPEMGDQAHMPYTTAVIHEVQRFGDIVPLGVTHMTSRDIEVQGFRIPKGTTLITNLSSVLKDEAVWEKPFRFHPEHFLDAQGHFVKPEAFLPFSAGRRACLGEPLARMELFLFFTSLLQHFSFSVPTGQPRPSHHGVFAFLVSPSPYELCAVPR

IC50 (Cytochrome P450 1A2): > 50 µM
fraction unbound at 4 h, 2 µM [1]: 0.035
Cp(f) [2]: 75 nM
Drug metabolism [3]: Metabolite_Detected
CLint scaled at 1 µM [4]: 137 mL/min/kg
Drug metabolism [6]: Metabolite_Detected
pKa [7]: 6.34 to 9.35
C0 [8]: 1910 nM
Drug metabolism [9]: 0.5 µM/g
half-life [10]: 154 min
IC50 (Cytochrome P450 2C19): > 50 µM
CLint scaled at 1 µM [11]: 66.9 mL/min/kg
Drug metabolism [12]: Metabolite_Detected
remaining at 1 h, 10 µM [13]: 81.2%
remaining at 1 h, 10 µM [14]: 37.6%
concentration at 4 h [15]: 1530 nM
Cmax [16]: 620 nM
Vd [17]: 4.65 L/kg
concentration at 2 h [18]: 2160 nM
Cp(f) [19]: 163 nM
IC50 (Cytochrome P450 3A4): 43.4 µM
Tmax [20]: 1.67 h
IC50 (Cytochrome P450 2D6): 22 µM
AUC(0-t) [21]: 2.44 µM·h
IC50 (Cytochrome P450 2C9): 5.7 µM
logD (physchem [23]): 1.79
concentration at 1 h [24]: 8.48 µM
AUC [25]: 3.04 µM·h
fAUClast (Rattus norvegicus): 106 nM·h
remaining at 1 h, 10 µM [26]: 49.7%
solubility thermodynamic (physchem [27]): 26.5 µM
clearance [28]: 37 mL/min/kg
Cp(f) [29]: 262 nM
SMILES: CCN[C@@H]1CCC=C(c2ccc(F)cc2)[C@H]1COc1cc(F)c(S(=O)(=O)Nc2cscn2)cc1Cl.Cl
IC50 [5]: 4.4 µM
IC50 [22]: > 10 µM
